Results from patent US20110152094A1, “Herbicidal compositions comprising flufenacet” (Bayer CropScience AG, priority 2009, published 2011).

Columns and labels:
Format in all cases: in vivo
LOLPE = Lolium perenne [1] = assay: Greenhouse trial, post-emergence (PO) action against weeds (test method 2); conditions: PO application; g of AS/ha: (A) 120, (B) 1200, (A)+(B) 120 + 1200; about 3 weeks after application
Experimental: (§1) In the standard design of the test, seeds of various broad-leaved weed and weed grass biotypes (origins) were sown in a 8-13 cm diameter pot filled with natural soil of a standard field soil (loamy silt; non-sterile) and covered with a covering soil layer of about 1 cm. The pots were then cultivated in a greenhouse (12-16 h of light, temperature day 20-22° C., night 15-18° C.) until the time of application. The pots were treated on a laboratory track sprayer with spray liquors comprising the compositions according to the invention, mixtures of the prior art or components used individually. Application of the active compounds or active compound combinations formulated as WG, WP, EC or otherwise was carried out at the appropriate growth stages of the plants. The application rate for the spray application was 100-600 l of water/ha. After the treatment, the plants were returned to the greenhouses.
(§2) About 3 weeks after the application, the soil action or/and foliar action was assessed visually according to a scale of 0-100% in comparison to an untreated comparative group: 0%=no noticeable effect compared to the untreated comparative group; 100%=full effect compared to the untreated comparative group.
(§3) (notes: the term “seeds” also includes vegetative propagation forms such as, for example, rhizome pieces; abbreviations used: h light=hours of illumination, g of AS/ha=gram of active substance per hectare, l/ha=liter per hectare, S=sensitive, R=resistant) • 1. Pre-emergence action against weeds: seeds of various broad-leaved weed and weed grass biotypes (origins) were sown in a 8-13 cm diameter pot filled with natural soil of a standard field soil (loamy silt; non-sterile) and covered with a covering soil layer of about 1 cm. The pots were then cultivated in a greenhouse (12-16 h of light, temperature day 20-22° C., night 15-18° C.) until the time of application. The pots were treated at the BBCH stage 00-10 of the seeds/plants on a laboratory track sprayer with spray liquors comprising the compositions according to the invention, mixtures or components used individually, as WG, WP, EC or other formulations. The application rate for the spray application was 100-600 l of water/ha. After the treatment, the plants were returned to the greenhouses and, when required, treated with fertilizer and watered. • 2. Post-emergence action against weeds: seeds of various broad-leaved weed and weed grass biotypes (origins) were sown in a 8-13 cm diameter pot filled with natural soil of a standard field soil (loamy silt; non-sterile) and covered with a covering soil layer of about 1 cm. The pots were then cultivated in a greenhouse (12-16 h of light, temperature day 20-22° C., night 15-18° C.) until the time of application. The pots were treated at various BBCH stages between 11-25 of the seeds/plants, i.e. generally between two to three weeks after the start of the cultivation, on a laboratory track sprayer with spray liquors comprising the compositions according to the invention, mixtures or components used individually, as WG, WP, EC or other formulations. The application rate for the spray application was 100-600 l of water/ha. After the treatment, the plants were returned to the greenhouses and, when required, treated with fertilizer and watered. • 3. Selective pre-emergence action: seeds of various crop species (origins) were sown in a 8-13 cm diameter pot filled with natural soil of a standard field soil (loamy silt; non-sterile) and covered with a covering soil layer of about 1 cm. The pots were then cultivated in a greenhouse (12-16 h of light, temperature day 20-22° C., night 15-18° C.) until the time of application. The pots were treated at the BBCH stage 00-10 of the seeds/plants on a laboratory track sprayer with spray liquors comprising the compositions according to the invention, mixtures or components used individually, as WG, WP, EC or other formulations. The application rate for the spray application was 100-600 l of water/ha. […]

STEME = Stellaria media [2] = assay: as above; conditions: PO application; g of AS/ha: (A) 120, (B) 1200, (A)+(B) 120 + 1200; about 3 weeks after application
Experimental: as §1, §2, §3

VIOAR = Viola arvensis = assay: as above; conditions: PO application; g of AS/ha: (A) 120, (B) 1200, (A)+(B) 120 + 1200; about 3 weeks after application
Experimental: as §1, §2, §3

AVEFA = Avena fatua [3] = assay: Greenhouse trial, pre-emergence (PE) action against weeds (test method 1); conditions: PE application; g of AS/ha: (A) 90, (B) 1200, (A)+(B) 90 + 1200
Experimental: as §1, §2
(§4) (notes: the term “seeds” also includes vegetative propagation forms such as, for example, rhizome pieces; abbreviations used: h light=hours of illumination, g of AS/ha=gram of active substance per hectare, l/ha=liter per hectare, S=sensitive, R=resistant) • 1. Pre-emergence action against weeds: seeds of various broad-leaved weed and weed grass biotypes (origins) were sown in a 8-13 cm diameter pot filled with natural soil of a standard field soil (loamy silt; non-sterile) and covered with a covering soil layer of about 1 cm. The pots were then cultivated in a greenhouse (12-16 h of light, temperature day 20-22° C., night 15-18° C.) until the time of application. The pots were treated at the BBCH stage 00-10 of the seeds/plants on a laboratory track sprayer with spray liquors comprising the compositions according to the invention, mixtures or components used individually, as WG, WP, EC or other formulations. The application rate for the spray application was 100-600 l of water/ha. After the treatment, the plants were returned to the greenhouses and, when required, treated with fertilizer and watered. • 2. Post-emergence action against weeds: seeds of various broad-leaved weed and weed grass biotypes (origins) were sown in a 8-13 cm diameter pot filled with natural soil of a standard field soil (loamy silt; non-sterile) and covered with a covering soil layer of about 1 cm. The pots were then cultivated in a greenhouse (12-16 h of light, temperature day 20-22° C., night 15-18° C.) until the time of application. […]

[4] = system: MATCH = Matricaria chamomilla; assay: as above; conditions: PE application; g of AS/ha: (A) 90, (B) 1200, (A)+(B) 90 + 1200
Experimental: as §1, §2, §4

AVEFA = Avena fatua [5] = assay: Greenhouse trial, pre-sowing application 7 days prior to sowing (test method 5); conditions: g of AS/ha: (A) 90, (B) 1200, (A)+(B) 90 + 1200
Experimental: as §1, §2
(§5) (notes: the term “seeds” also includes vegetative propagation forms such as, for example, rhizome pieces; abbreviations used: h light=hours of illumination, g of AS/ha=gram of active substance per hectare, l/ha=liter per hectare, S=sensitive, R=resistant) • 1. Pre-emergence action against weeds: seeds of various broad-leaved weed and weed grass biotypes (origins) were sown in a 8-13 cm diameter pot filled with natural soil of a standard field soil (loamy silt; non-sterile) and covered with a covering soil layer of about 1 cm. The pots were then cultivated in a greenhouse (12-16 h of light, temperature day 20-22° C., night 15-18° C.) until the time of application. The pots were treated at the BBCH stage 00-10 of the seeds/plants on a laboratory track sprayer with spray liquors comprising the compositions according to the invention, mixtures or components used individually, as WG, WP, EC or other formulations. The application rate for the spray application was 100-600 l of water/ha. After the treatment, the plants were returned to the greenhouses and, when required, treated with fertilizer and watered. • 2. Post-emergence action against weeds: seeds of various broad-leaved weed and weed grass biotypes (origins) were sown in a 8-13 cm diameter pot filled with natural soil of a standard field soil (loamy silt; non-sterile) and covered with a covering soil layer of about 1 cm. The pots were then cultivated in a greenhouse (12-16 h of light, temperature day 20-22° C., night 15-18° C.) until the time of application. The pots were treated at various BBCH stages between 11-25 of the seeds/plants, i.e. generally between two to three weeks after the start of the cultivation, on a laboratory track sprayer with spray liquors comprising the compositions according to the invention, mixtures or components used individually, as WG, WP, EC or other formulations. The application rate for the spray application was 100-600 l of water/ha. After the treatment, the plants were returned to the greenhouses and, when required, treated with fertilizer and watered. • 3. […]

[6] = system: MATCH = Matricaria chamomilla; assay: as above; conditions: g of AS/ha: (A) 90, (B) 1200, (A)+(B) 90 + 1200
Experimental: as §1, §2, §5

AVEFA = Avena fatua [7] = assay: Greenhouse trial, PE application with different irrigation variations (test method 6); conditions: g of AS/ha: (A) 120, (B) 1200, (A)+(B) 120 + 1200
Experimental: as §1, §2, §3

[8] = system: MATCH = Matricaria chamomilla; assay: as above; conditions: g of AS/ha: (A) 120, (B) 1200, (A)+(B) 120 + 1200
Experimental: as §1, §2, §3

STEME = Stellaria media [9] = assay: Greenhouse trial, activity with different soil types (test method 7); conditions: g of AS/ha: (A) 120, (B) 1200, (A)+(B) 120 + 1200
Experimental: as §1, §2, §3

[10] = system: ALOMY resistant (Alopecurus myosuroides); assay: Greenhouse trial, PE application on resistant biotypes (test method 8); conditions: resistant biotype, g of AS/ha: (A) 90, (B) 1200, (A)+(B) 90 + 1200
Experimental: as §1, §2, §3

[11] = system: ALOMY sensitive (Alopecurus myosuroides); assay: as above; conditions: sensitive biotype, g of AS/ha: (A) 90, (B) 1200, (A)+(B) 90 + 1200
Experimental: as §1, §2, §3

[12] = system: MATCH resistant (Matricaria chamomilla); assay: as above; conditions: resistant biotype, g of AS/ha: (A) 90, (B) 1200, (A)+(B) 90 + 1200, (C) 10
Experimental: as §1, §2, §3

[13] = system: MATCH sensitive (Matricaria chamomilla); assay: as above; conditions: sensitive biotype, g of AS/ha: (A) 90, (B) 1200, (A)+(B) 90 + 1200, (C) 10
Experimental: as §1, §2, §3

LOLPE = Lolium perenne [14] = assay: Greenhouse trial, PE application at different sowing depths (test method 9); conditions: g of AS/ha: (A) 120, (B) 1200, (A)+(B) 120 + 1200
Experimental: as §1, §2, §3

STEME = Stellaria media [15] = assay: as above; conditions: g of AS/ha: (A) 120, (B) 1200, (A)+(B) 120 + 1200
Experimental: as §1, §2, §3

CC(C)N(C(=O)COc1nnc(C(F)(F)F)s1)c1ccc(F)cc1 [(A) flufenacet, N-(4-fluorophenyl)-N-(1-methylethyl)-2-[[5-(trifluoromethyl)-1,3,4-thiadiazol-2-yl]oxy]acetamide]
activity LOLPE (visual assessment, scale 0-100% vs untreated) (LOLPE = Lolium perenne [1]): 65% | activity STEME (visual assessment, scale 0-100% vs untreated) (STEME = Stellaria media [2]): 30% | activity VIOAR (visual assessment, scale 0-100% vs untreated) (VIOAR = Viola arvensis): 40% | activity AVEFA (visual assessment, scale 0-100% vs untreated) (AVEFA = Avena fatua [3]): 85% | activity MATCH (visual assessment, scale 0-100% vs untreated) [4]: 15% | activity AVEFA (visual assessment, scale 0-100% vs untreated) (AVEFA = Avena fatua [5]): 70% | activity MATCH (visual assessment, scale 0-100% vs untreated) [6]: 93% | activity AVEFA (visual assessment, scale 0-100% vs untreated) (AVEFA = Avena fatua [7]; irrigation from above): 85% | activity AVEFA (visual assessment, scale 0-100% vs untreated) (AVEFA = Avena fatua [7]; irrigation from below): 50% | activity MATCH (visual assessment, scale 0-100% vs untreated) ([8]; irrigation from above): 97% | activity MATCH (visual assessment, scale 0-100% vs untreated) ([8]; irrigation from below): 35% | activity STEME IU soil (visual assessment, scale 0-100% vs untreated) (STEME = Stellaria media [9]; IU soil (loamy silt, standard field soil)): 89% | activity STEME IU/EC73 soil (visual assessment, scale 0-100% vs untreated) (STEME = Stellaria media [9]; IU/EC73 soil (heavier soil, higher organic substance)): 0% | Difference of the soil types Δ^D, STEME (STEME = Stellaria media [9]; IU/EC73 soil versus IU soil): Δ^D −89% | activity ALOMY resistant (visual assessment, scale 0-100% vs untreated) [10]: 68% | activity ALOMY sensitive (visual assessment, scale 0-100% vs untreated) [11]: 80% | activity MATCH resistant (visual assessment, scale 0-100% vs untreated) [12]: 30% | activity MATCH sensitive (visual assessment, scale 0-100% vs untreated) [13]: 30% | activity LOLPE, sowing depth 5 mm (visual assessment, scale 0-100% vs untreated) (LOLPE = Lolium perenne [14]; sowing depth 5 mm): 80% | activity LOLPE, sowing depth 20 mm (visual assessment, scale 0-100% vs untreated) (LOLPE = Lolium perenne [14]; sowing depth 20 mm): 90% | activity STEME, sowing depth 5 mm (visual assessment, scale 0-100% vs untreated) (STEME = Stellaria media [15]; sowing depth 5 mm): 0% | activity STEME, sowing depth 20 mm (visual assessment, scale 0-100% vs untreated) (STEME = Stellaria media [15]; sowing depth 20 mm): 20%
